From the NIST ThermoML archive (doi:10.1016/j.jct.2019.03.035)
Numbers after ± are expanded uncertainties.

Assay: molar heat capacity at constant pressure; xn = mol fraction of the nth substance listed
Details: 100 kPa, Liquid, DSC, x1 = 0.53

N#Cc1ccccc1 [benzonitrile] + CCCCCCCCCC
Details | molar heat capacity at constant pressure [J/K/mol]
281.74 K | 261.8 ± 10
281.89 K | 260.4 ± 10
282.04 K | 262.8 ± 10
282.19 K | 264 ± 10
282.34 K | 264.4 ± 10
282.48 K | 263.4 ± 10
282.63 K | 264 ± 10
282.78 K | 263.3 ± 10
282.93 K | 263.9 ± 10
283.08 K | 266.3 ± 10
283.23 K | 265.2 ± 10
283.38 K | 266.7 ± 10
283.52 K | 266.3 ± 10
283.67 K | 268.2 ± 10
283.82 K | 266.5 ± 10
283.97 K | 267.5 ± 10
284.12 K | 266.6 ± 10
284.26 K | 265.9 ± 10
284.41 K | 266.6 ± 10
284.56 K | 268 ± 10
284.71 K | 266.6 ± 10
284.86 K | 268.5 ± 10
285.01 K | 265.8 ± 10
285.16 K | 269.9 ± 10
285.3 K | 270.2 ± 10
285.45 K | 268.9 ± 10
285.6 K | 269.8 ± 10
285.75 K | 271.8 ± 10
285.9 K | 271.1 ± 10
286.05 K | 270.5 ± 10
286.19 K | 273.2 ± 11
286.34 K | 273.4 ± 11
286.49 K | 278.6 ± 11
286.64 K | 283.9 ± 11
286.79 K | 282.2 ± 11
286.94 K | 285.9 ± 11
287.09 K | 285.2 ± 11
287.23 K | 307.6 ± 13
287.38 K | 254 ± 12
287.53 K | 250.3 ± 9.7
287.68 K | 248.6 ± 9.6
287.83 K | 246.7 ± 9.6
287.98 K | 247.4 ± 9.6
288.12 K | 245.8 ± 9.5
288.27 K | 246 ± 9.5
288.42 K | 245.6 ± 9.5
288.57 K | 244.9 ± 9.5
288.72 K | 244.8 ± 9.5
288.87 K | 244.5 ± 9.5
289.01 K | 244.3 ± 9.5
289.16 K | 243.6 ± 9.4
289.31 K | 244.2 ± 9.5
289.46 K | 243.9 ± 9.4
289.61 K | 244.1 ± 9.5
289.76 K | 243.4 ± 9.4
289.9 K | 243.5 ± 9.4
290.05 K | 243.5 ± 9.4
290.2 K | 243.2 ± 9.4
290.35 K | 243.1 ± 9.4
290.5 K | 243.2 ± 9.4
290.65 K | 243.1 ± 9.4
290.83 K | 243 ± 9.4
290.98 K | 241.8 ± 9.4
291.13 K | 243 ± 9.4
291.28 K | 243.4 ± 9.4
291.43 K | 242.8 ± 9.4
291.57 K | 242.5 ± 9.4
291.72 K | 242.7 ± 9.4
291.87 K | 242.8 ± 9.4
292.02 K | 242.4 ± 9.4
292.17 K | 242.1 ± 9.4
292.32 K | 241.7 ± 9.4
292.46 K | 242.5 ± 9.4
292.61 K | 242.1 ± 9.4
292.76 K | 241.7 ± 9.4
292.91 K | 242.6 ± 9.4
293.06 K | 242 ± 9.4
293.21 K | 242.1 ± 9.4
293.36 K | 242.4 ± 9.4
293.5 K | 241.7 ± 9.4
293.65 K | 242.3 ± 9.4
293.8 K | 242.2 ± 9.4
293.95 K | 242.1 ± 9.4
294.1 K | 241.7 ± 9.4
294.25 K | 241.9 ± 9.4
294.39 K | 241.8 ± 9.4
294.54 K | 242.1 ± 9.4
294.69 K | 242.1 ± 9.4
294.84 K | 242.3 ± 9.4
294.99 K | 241.7 ± 9.4
295.14 K | 242.2 ± 9.4
295.29 K | 242.1 ± 9.4
295.43 K | 241.7 ± 9.4
295.58 K | 242 ± 9.4
295.73 K | 242.1 ± 9.4
295.88 K | 242.8 ± 9.4
296.03 K | 242.1 ± 9.4
296.18 K | 242.8 ± 9.4
296.32 K | 242.2 ± 9.4
296.47 K | 241.8 ± 9.4
296.62 K | 241.1 ± 9.3
297.05 K | 242.4 ± 9.4
297.34 K | 242.5 ± 9.4
297.62 K | 242.5 ± 9.4
297.91 K | 242.4 ± 9.4
298.19 K | 242.5 ± 9.4
298.47 K | 242.7 ± 9.4
298.76 K | 242.6 ± 9.4
299.04 K | 242.7 ± 9.4
299.32 K | 242.8 ± 9.4
299.61 K | 242.9 ± 9.4
299.89 K | 242.9 ± 9.4
300.18 K | 243 ± 9.4
300.46 K | 243.1 ± 9.4
300.74 K | 243 ± 9.4
301.03 K | 243 ± 9.4
301.31 K | 243.1 ± 9.4
301.6 K | 243.2 ± 9.4
301.88 K | 243.2 ± 9.4
302.16 K | 243.3 ± 9.4
302.45 K | 243.4 ± 9.4
302.73 K | 243.5 ± 9.4
303.01 K | 243.5 ± 9.4
303.3 K | 243.6 ± 9.4
303.58 K | 243.7 ± 9.4
303.87 K | 243.7 ± 9.4
304.15 K | 243.8 ± 9.4
304.43 K | 243.9 ± 9.4
304.72 K | 243.9 ± 9.4
305 K | 244.1 ± 9.5
305.29 K | 244.1 ± 9.5
305.57 K | 244 ± 9.5
305.85 K | 244.2 ± 9.5
306.14 K | 244.3 ± 9.5
306.42 K | 244.3 ± 9.5
306.7 K | 244.4 ± 9.5
306.99 K | 244.5 ± 9.5
307.27 K | 244.6 ± 9.5
307.56 K | 244.6 ± 9.5
307.84 K | 244.7 ± 9.5
308.12 K | 244.9 ± 9.5
308.41 K | 244.8 ± 9.5
308.69 K | 244.9 ± 9.5
308.98 K | 245.1 ± 9.5
309.26 K | 245 ± 9.5
309.54 K | 245.1 ± 9.5
309.83 K | 245.2 ± 9.5
310.11 K | 245.4 ± 9.5
310.39 K | 245.5 ± 9.5
310.68 K | 245.5 ± 9.5
310.96 K | 245.5 ± 9.5
311.25 K | 245.7 ± 9.5
311.53 K | 245.7 ± 9.5
311.81 K | 245.8 ± 9.5
312.1 K | 245.9 ± 9.5
312.38 K | 246 ± 9.5
312.67 K | 246 ± 9.5
312.95 K | 246.1 ± 9.5
313.23 K | 246.3 ± 9.5
313.52 K | 246.2 ± 9.5
313.8 K | 246.5 ± 9.5
314.08 K | 246.5 ± 9.5
314.37 K | 246.6 ± 9.6
314.65 K | 246.5 ± 9.5
314.94 K | 246.7 ± 9.6
315.22 K | 246.8 ± 9.6
315.5 K | 246.9 ± 9.6
315.79 K | 246.9 ± 9.6
316.07 K | 247 ± 9.6
316.36 K | 247.1 ± 9.6
316.64 K | 247.3 ± 9.6
316.92 K | 247.4 ± 9.6
317.21 K | 247.5 ± 9.6
317.49 K | 247.5 ± 9.6
317.77 K | 247.6 ± 9.6
318.06 K | 247.7 ± 9.6
318.34 K | 247.7 ± 9.6
318.63 K | 247.8 ± 9.6
318.91 K | 248 ± 9.6
319.19 K | 248.1 ± 9.6
319.48 K | 248.2 ± 9.6
319.76 K | 248.2 ± 9.6
320.05 K | 248.3 ± 9.6
320.33 K | 248.4 ± 9.6
320.61 K | 248.5 ± 9.6
320.9 K | 248.5 ± 9.6
321.18 K | 248.6 ± 9.6
321.46 K | 248.7 ± 9.6
321.75 K | 248.9 ± 9.6
322.03 K | 249 ± 9.6
322.32 K | 249 ± 9.6
322.6 K | 249.1 ± 9.6
322.88 K | 249.3 ± 9.7
323.17 K | 249.3 ± 9.7
323.45 K | 249.5 ± 9.7
323.74 K | 249.5 ± 9.7
324.02 K | 249.6 ± 9.7
324.3 K | 249.7 ± 9.7
324.59 K | 249.9 ± 9.7
324.87 K | 250.1 ± 9.7
325.16 K | 250.2 ± 9.7
325.44 K | 250.1 ± 9.7
325.72 K | 250.1 ± 9.7
